Patent US20260200885A1, “BENZOPYRONE COMPOUNDS AS WELL AS PREPARATION METHOD THEREFOR AND USE THEREOF” (CHENGDU DI’AO JIUHONG PHARMACEUTICAL FACTORY, priority 2022, published 2026)
Where two headings read alike, the source gives them in different places.

What was measured:
A2780 cells = assay: Determination of cell activity (CellTiter-Glo Luminescent Cell Viability Assay); type: cell-based; settings: Homo sapiens
Protocol: To examine the effect of compounds on cell viability, ATP was directly quantified using the CellTiter-Glo Luminescent Cell Viability Assay (Promega) to determine the number of viable cells.
Cell density was selected based on optimal signal intensity and growth curve for the inoculation of A2780 cells. The cells were incubated at 37° C. and 5% C02 overnight. Cells were treated with blank group, DMSO group and compound group, respectively, at 37° C. and 5% C02 for 7 days. The prepared solutions were added to cell wells according to the instructions of CellTiter-Glo (Promega), and shaken at a speed of 400 g for 2 min. Then, the solutions were centrifuged at 1000 g for 2 min and incubated at rest for 30 min to ensure a complete reaction. […] readings were taken using a multi-label microplate reader (Perkin Elmer) to calculate IC50 values.

[1] = Pharmacokinetic assay in CD1 mice; type: in vivo; settings: for half-life / AUC(0-inf) / AUC(0-t) / Cmax: mouse, plasma, po; for half-life: intragastric administration 5 mg/kg, Table I-3, read-out: T1/2 (h) for oral administration (converted); for F: bioavailability; for F / T1/2 / AUC(0-inf) / AUC(0-t): Table I-4; for maximum plasma concentration Cmax compared with IMT1B / plasma exposure AUC compared with IMT1B: comparison in words; for T1/2 / AUC(0-inf) / AUC(0-t) / Cmax: main pharmacokinetic parameters; for AUC(0-inf) / AUC(0-t) / Cmax: 5 mg/kg; for Cmax: Table I-4, read-out: Cmax
Protocol: pharmacokinetic assay of compounds was carried out in CD1 mice aged 6-8 weeks with IMT1B as a positive control. The compounds and the positive control were dissolved in 30% aqueous hydroxypropyl-β-cyclodextrin solution containing 25% PEG400 and administered via intravenous injection (1 mg/kg) or intragastric administration (5 mg/kg). Blood samples were collected at 0.033, 0.083, 0.25, 0.5, 1, 2, 4, 8, 24 h and 0.083, 0.25, 0.5, 1, 2, 4, 8, 24 h respectively after administration.
The concentration of the compounds in plasma samples was analyzed using the LC-MS/MS method. Pharmacokinetic calculations were performed using WinNonlin (Phoenix™, version 8.3) or other similar software. The following pharmacokinetic parameters were calculated from the plasma concentration vs. time data: for intravenous administration: T1/2, C0, AUClast, AUCinf, MRTinf, Cl, Vss, regression coefficient, etc.; for oral administration: T1/2, Cmax, Tmax, AUClast, AUCinf, bioavailability, etc. The above parameter data were statistically calculated and described using descriptive statistics such as mean value and standard deviation.

[2] = 168 h, A2780 cells, 7 days treatment, CellTiter-Glo, read-out: IC50

| IC50 (A2780 cells; [2]) [nM] | SMILES | also measured |
| --- | --- | --- |
| 100 to 1000 | C[C@@H](Oc1ccc2c(-c3ccc(F)cc3Cl)cc(=O)oc2c1)C(=O)c1ccccc1C(=O)O [Compound A1-1-1] |  |
|  | C[C@@H](Oc1ccc2c(-c3ccc(F)cc3Cl)cc(=O)oc2c1)C(=O)c1ccc(C(=O)O)cc1 [Compound A1-1-9] | half-life [1]: 3.89 h |
|  | C[C@@H](Oc1ccc2c(-c3ccc(F)cc3Cl)cc(=O)oc2c1)C(=O)c1ccnc(C(=O)O)c1 [Compound A1-4-5] | half-life [1]: 9.73 h |
| 100 to 1000 | C[C@H](Oc1ccc2c(-c3ccc(F)cc3Cl)cc(=O)oc2c1)C(=O)c1ccccc1C(=O)O [Compound A2-1-1] | half-life [1]: 3.54 h |
| 20 to 100 | C[C@H](Oc1ccc2c(-c3ccc(F)cc3Cl)cc(=O)oc2c1)C(=O)c1cccc(C(=O)O)c1 [Compound A2-1-5] | F [1]: 137.555%; maximum plasma concentration Cmax compared with IMT1B [1]: significantly superior to IMT1B; plasma exposure AUC compared with IMT1B [1]: significantly superior to IMT1B; T1/2 [1]: 3.985 h; AUC(0-inf) [1]: 9870 ng·h/mL; AUC(0-t) [1]: 9740 ng·h/mL; Cmax [1]: 1060 ng/mL; half-life [1]: 3.98 h |
| 100 to 1000 | CC(Oc1ccc2c(-c3ccccc3F)cc(=O)oc2c1)C(=O)c1cccc(C(=O)O)c1 (stereo not shown) [Compound A-1-2-1-1] |  |
| 20 to 100 | CC(Oc1ccc2c(-c3ccccc3Cl)cc(=O)oc2c1)C(=O)c1cccc(C(=O)O)c1 (stereo not shown) [Compound A-1-2-1-2] |  |
| 20 to 100 | CC(Oc1ccc2c(-c3ccccc3Br)cc(=O)oc2c1)C(=O)c1cccc(C(=O)O)c1 (stereo not shown) [Compound A-1-2-1-3] |  |
| 100 to 1000 | COc1ccccc1-c1cc(=O)oc2cc(OC(C)C(=O)c3cccc(C(=O)O)c3)ccc12 (stereo not shown) [Compound A-1-2-1-8] |  |
| 20 to 100 | CNC(=O)c1cccc(C(=O)C(C)Oc2ccc3c(-c4ccc(F)cc4Cl)cc(=O)oc3c2)c1 (stereo not shown) [Compound A-1-2-1-35] |  |
| 20 to 100 | CC(Oc1ccc2c(-c3ccc(F)cc3Cl)cc(=O)oc2c1)C(=O)c1cccc(C(N)=O)c1 (stereo not shown) [Compound A-1-2-1-36] |  |
| 20 to 100 | CC(Oc1ccc2c(-c3ccc(F)cc3Cl)cc(=O)oc2c1)C(=O)c1cccc(S(N)(=O)=O)c1 (stereo not shown) [Compound A-1-2-1-40] | half-life [1]: 3.57 h |
| 20 to 100 | CC(Oc1ccc2c(-c3ccc(F)cc3Cl)cc(=O)oc2c1)C(=O)c1ccccc1 (stereo not shown) [Compound A-1-2-1-70] |  |
| 20 to 100 | CC(Oc1ccc2c(-c3ccc(F)cc3Cl)cc(=O)oc2c1)C(=O)c1cccc(F)c1 (stereo not shown) [Compound A-1-2-1-71] |  |
| 100 to 1000 | CC(Oc1ccc2c(-c3ccc(F)cc3Cl)cc(=O)oc2c1)C(=O)c1cccc(Cl)c1 (stereo not shown) [Compound A-1-2-1-72] |  |
| 100 to 1000 | CC(Oc1ccc2c(-c3ccc(F)cc3Cl)cc(=O)oc2c1)C(=O)c1cccc(Br)c1 (stereo not shown) [Compound A-1-2-1-73] |  |
| 20 to 100 | Cc1cccc(C(=O)C(C)Oc2ccc3c(-c4ccc(F)cc4Cl)cc(=O)oc3c2)c1 (stereo not shown) [Compound A-1-2-1-75] |  |
| 100 to 1000 | COc1cccc(C(=O)C(C)Oc2ccc3c(-c4ccc(F)cc4Cl)cc(=O)oc3c2)c1 (stereo not shown) [Compound A-1-2-1-76] |  |
| < 20 | CC(Oc1ccc2c(-c3ccc(F)cc3Cl)cc(=O)oc2c1)C(=O)c1ccc(N)cc1 (stereo not shown) [Compound A-1-2-1-78] |  |
| 20 to 100 | CNc1ccc(C(=O)C(C)Oc2ccc3c(-c4ccc(F)cc4Cl)cc(=O)oc3c2)cc1 (stereo not shown) [Compound A-1-2-1-79] |  |
| 20 to 100 | CC(Oc1ccc2c(-c3ccc(F)cc3Cl)cc(=O)oc2c1)C(=O)c1ccc(N(C)C)cc1 (stereo not shown) [Compound A-1-2-1-80] |  |
| < 20 | CC(Oc1ccc2c(-c3ccc(F)cc3Cl)cc(=O)oc2c1)C(=O)c1ccc(O)cc1 (stereo not shown) [Compound A-1-2-1-82] |  |
| < 20 | CC(=O)Oc1ccc(C(=O)C(C)Oc2ccc3c(-c4ccc(F)cc4Cl)cc(=O)oc3c2)cc1 (stereo not shown) [Compound A-1-2-1-83] |  |
| < 20 | CC(=O)Nc1ccc(C(=O)C(C)Oc2ccc3c(-c4ccc(F)cc4Cl)cc(=O)oc3c2)cc1 (stereo not shown) [Compound A-1-2-1-84] |  |
| 100 to 1000 | CC(Oc1ccc2c(-c3ccc(F)cc3Cl)cc(=O)oc2c1)C(=O)c1cccc([N+](=O)[O-])c1 (stereo not shown) [Compound A-1-2-1-89] |  |
| 20 to 100 | CC(Oc1ccc2c(-c3ccc(F)cc3Cl)cc(=O)oc2c1)C(=O)c1cccc(C#N)c1 (stereo not shown) [Compound A-1-2-1-90] |  |
| 20 to 100 | CC(Oc1ccc2c(-c3ccc(F)cc3Cl)cc(=O)oc2c1)C(=O)c1cc(F)cc(C(=O)O)c1 (stereo not shown) [Compound A-1-2-1-93] | F [1]: 102.733%; maximum plasma concentration Cmax compared with IMT1B [1]: significantly superior to IMT1B; plasma exposure AUC compared with IMT1B [1]: significantly superior to IMT1B; T1/2 [1]: 11.706 h; AUC(0-inf) [1]: 211000 ng·h/mL; AUC(0-t) [1]: 155000 ng·h/mL; Cmax [1]: 8960 ng/mL; half-life [1]: 11.7 h |
| < 20 | CC(Oc1ccc2c(-c3ccc(F)cc3Cl)cc(=O)oc2c1)C(=O)c1cc(F)c(O)c(F)c1 (stereo not shown) [Compound A-1-2-1-94] | half-life [1]: 4.57 h |

| IC50 (A2780 cells; [2]) [nM] | SMILES | also measured |
| --- | --- | --- |
| < 20 | Cc1ccccc1-c1cc(=O)oc2cc(OC(C)C(=O)c3cccc(C(=O)O)c3)ccc12 (stereo not shown) [Compound A-1-2-1-98] |  |
| 100 to 1000 | CC(Oc1ccc2c(-c3ccccc3)cc(=O)oc2c1)C(=O)c1cccc(C(=O)O)c1 (stereo not shown) [Compound A-1-2-1-99] |  |
| 100 to 1000 | Cc1cccc(-c2cc(=O)oc3cc(OC(C)C(=O)c4cccc(C(=O)O)c4)ccc23)c1 (stereo not shown) [Compound A-1-2-1-100] |  |
| 100 to 1000 | CCc1ccccc1-c1cc(=O)oc2cc(OC(C)C(=O)c3cccc(C(=O)O)c3)ccc12 (stereo not shown) [Compound A-1-2-1-101] |  |
| 100 to 1000 | C=Cc1ccccc1-c1cc(=O)oc2cc(OC(C)C(=O)c3cccc(C(=O)O)c3)ccc12 (stereo not shown) [Compound A-1-2-1-103] |  |
| < 20 | CC(=O)NCCc1ccc(C(=O)C(C)Oc2ccc3c(-c4ccc(F)cc4Cl)cc(=O)oc3c2)cc1 (stereo not shown) [Compound A-1-2-1-104] |  |
| > 1000 | CC(Oc1ccc2cc(-c3ccccc3)c(=O)oc2c1)C(=O)N1CCCC(C#N)C1 (stereo not shown) [Compound A-1-2-2-2] |  |
| 100 to 1000 | CC(Oc1ccc2c(C3CCCCC3)cc(=O)oc2c1)C(=O)c1cccc(C(=O)O)c1 (stereo not shown) [Compound A-1-2-6-2] |  |
| > 1000 | CC(Oc1ccc2c(-c3cccnc3)cc(=O)oc2c1)C(=O)N1CCCC(C#N)C1 (stereo not shown) [Compound A-1-2-6-23] |  |
| > 1000 | CC(Oc1ccc2c(-c3ccncc3)cc(=O)oc2c1)C(=O)N1CCCC(C#N)C1 (stereo not shown) [Compound A-1-2-6-24] |  |
| 100 to 1000 | CC(Oc1ccc2c(-c3ccc(F)cc3Cl)cc(=O)oc2c1)C(=O)C1CCN(C)CC1 (stereo not shown) [Compound A-1-7-1-1] |  |
| 100 to 1000 | CC(Oc1ccc2c(-c3ccc(F)cc3Cl)cc(=O)oc2c1)C(=O)C1CCN(C2CC2)CC1 (stereo not shown) [Compound A-1-7-1-2] | half-life [1]: 3.78 h |
| 20 to 100 | CC(Oc1ccc2c(-c3ccc(F)cc3Cl)cc(=O)oc2c1)C(=O)C1CCN(C(=O)C(Cl)Cl)CC1 (stereo not shown) [Compound A-1-7-1-3] |  |
| 100 to 1000 | CC(Oc1ccc2c(-c3ccc(F)cc3Cl)cc(=O)oc2c1)C(=O)C1CCN(CCO)CC1 (stereo not shown) [Compound A-1-7-1-4] |  |
| 100 to 1000 | CC(Oc1ccc2c(-c3ccc(F)cc3Cl)cc(=O)oc2c1)C(=O)[C@H]1CCCNC1 (stereo partly shown) [Compound A-1-8-1-1] |  |
| 100 to 1000 | CC(Oc1ccc2c(-c3ccc(F)cc3Cl)cc(=O)oc2c1)C(=O)[C@@H]1CCCNC1 (stereo partly shown) [Compound A-1-8-1-2] |  |
| 100 to 1000 | CC(Oc1ccc2c(-c3ccc(F)cc3Cl)cc(=O)oc2c1)C(=O)c1ccc[nH]1 (stereo not shown) [Compound A-1-10-1-4] | half-life [1]: 3.76 h |
| < 20 | CC(Oc1ccc2c(-c3ccc(F)cc3Cl)cc(=O)oc2c1)C(=O)c1cc[nH]c1 (stereo not shown) [Compound A-1-10-1-5] |  |
| 20 to 100 | CC(Oc1ccc2c(-c3ccc(F)cc3Cl)cc(=O)oc2c1)C(=O)c1ccoc1 (stereo not shown) [Compound A-1-10-1-6] |  |
| 20 to 100 | CC(Oc1ccc2c(-c3ccc(F)cc3Cl)cc(=O)oc2c1)C(=O)c1ccsc1 (stereo not shown) [Compound A-1-10-1-7] |  |
| 100 to 1000 | CC(Oc1ccc2c(-c3ccc(F)cc3Cl)cc(=O)oc2c1)C(=O)C1CCNC1 (stereo not shown) [Compound A-1-10-1-35] |  |
| < 20 | CC(Oc1ccc2c(-c3ccc(F)cc3Cl)cc(=O)oc2c1)C(=O)C1CCOCC1 (stereo not shown) [Compound A-1-10-1-39] |  |
| 20 to 100 | CC(Oc1ccc2c(-c3ccc(F)cc3Cl)cc(=O)oc2c1)C(=O)c1ccc2[nH]ccc2c1 (stereo not shown) [Compound A-1-11-1-1] |  |
| 100 to 1000 | CC(Oc1ccc2c(-c3ccc(F)cc3Cl)cc(=O)oc2c1)C(=O)c1ccc2c(c1)OCO2 (stereo not shown) [Compound A-1-11-1-10] |  |
| 100 to 1000 | CC(Oc1ccc2c(-c3ccc(F)cc3Cl)cc(=O)oc2c1)C(=O)c1ccc2c(c1)OCCO2 (stereo not shown) [Compound A-1-11-1-13] |  |
| 100 to 1000 | CC(Oc1ccc2c(-c3ccc(F)cc3Cl)cc(=O)oc2c1)C(=O)C12CC3CC(CC(C3)C1)C2 (stereo not shown) [Compound A-1-12-1-27] |  |
|  | CC(Oc1ccc2c(-c3ccc(F)cc3Cl)cc(=O)oc2c1)C(=O)C1CCN(CC(=O)O)CC1 (stereo not drawn) [α-12] | IC50 (A2780 cells; A2780, 168 h): 100 to 1000 nM |
